{"source": "patent US10821087B2", "about": "“Stabilized injectable emulsion of Propofol and Ketamine” (NEON LABORATORIES LIMITED, priority 2015, dated 2020)", "origin": "cited, not measured here", "system": "Propofol induced pain", "conditions": "100 μg/kg Ketamine administered just before Propofol", "data": [{"compound": "CNC1(c2ccccc2Cl)CCCCC1=O", "note": "(centres unmarked) [Ketamine]", "values": [{"measurement": "adverse hemodynamic effects", "value": "without significant adverse hemodynamic effects"}, {"measurement": "incidence and intensity of Propofol induced pain", "value": "reduce the incidence and intensity of Propofol induced pain"}]}]}
